According to US10689421B2, “Bacteriocin-producing Paenibacillus ehimensis and application thereof” (National Pingtung University of Science and Technology, priority 2018, dated 2020):

tested on: P. ehimensis NPUST-1; assay: Inhibition effect of aquacultural antibiotics against NPUST-1 strain (inhibitory zone); type: cell-based, Paenibacillus ehimensis; set-up: inhibitory zone size: unit not given here; settings: TSB agar plate containing P. ehimensis NPUST-1; each antibiotic at its maximum concentration for aquaculture (Table 4)
Description: To find out competent antibiotics for combination with NPUST-1 bacterial strain used as a probiotic, inhibition effect of varies aquacultural antibiotics against NPUST-1 bacterial strain are examined. Detailed testing steps are described as below.
Following antibiotics are examined: amoxicillin, ampicillin, doxycycline, erythromycin, furazolidone, flumequine, ormetoprim, oxytetracycline, sulfadimethoxine, chloramphenicol, gentamycin and kanamycin. The antibiotics concentration (shown in table 4) being tested are the available maximum concentration conformed to the drug regulation for aquaculture. After all the antibiotics are prepared, use TSB agar plate containing P. ehimensis NPUST-1 to determine the antibacterial activity and measure the inhibitory zone of antibiotics.

Compared with `CC1(C)S[C@@H]2[C@H](NC(=O)[C@H](N)c3ccc(O)cc3)C(=O)N2[C@H]1C(=O)O` [Amoxicillin, amoxicillin], `O=C(N[C@H](CO)[C@H](O)c1ccc([N+](=O)[O-])cc1)C(Cl)Cl` [Chloramphenicol, chloramphenicol] is higher in inhibitory zone size: 2.30 ± 0.10 for the first, 2.67 ± 0.06 for the second.

Compared with `C[C@H]1c2cccc(O)c2C(=O)C2=C(O)[C@]3(O)C(=O)C(C(N)=O)=C(O)[C@@H](N(C)C)[C@@H]3[C@@H](O)[C@@H]21` [Doxycycline, doxycycline], `CC[C@H]1OC(=O)[C@H](C)[C@@H](O[C@H]2C[C@@](C)(OC)[C@@H](O)[C@H](C)O2)[C@H](C)[C@@H](O[C@@H]2O[C@H](C)C[C@H](N(C)C)[C@H]2O)[C@](C)(O)C[C@@H](C)C(=O)[C@H](C)[C@@H](O)[C@]1(C)O` [Erythromycin, erythromycin] is lower in inhibitory zone size: 3.30 ± 0.00 for the first, 1.73 ± 0.06 for the second.

Going from `CC1CCc2cc(F)cc3c(=O)c(C(=O)O)cn1c23` (centres unmarked) [Flumequine, flumequine] to `O=C1OCCN1/N=C/c1ccc([N+](=O)[O-])o1` [Furazolidone, furazolidone], the inhibitory zone size falls from 5.67 ± 0.06 to 1.00 ± 0.00.

First: NC[C@H]1O[C@H](O[C@H]2[C@H](O)[C@@H](O[C@H]3O[C@H](CO)[C@@H](O)[C@H](N)[C@H]3O)[C@H](N)C[C@@H]2N)[C@H](O)[C@@H](O)[C@@H]1O [Kanamycin, kanamycin]
Second: COc1cc(C)c(Cc2cnc(N)nc2N)cc1OC [Ormetoprim, ormetoprim]
The inhibitory zone size of the first is lower: 1.13 ± 0.03 for the first, 4.60 ± 0.00 for the second.

`CN(C)[C@@H]1C(O)=C(C(N)=O)C(=O)[C@@]2(O)C(O)=C3C(=O)c4c(O)cccc4[C@@](C)(O)[C@H]3[C@H](O)[C@@H]12` [Oxytetracycline, oxytetracycline] and gentamycin are within error of each other in inhibitory zone size: 2.13 ± 0.06 for the first, 2.03 ± 2.03 for the second.

same assay, conditions: in words

`CC1(C)S[C@@H]2[C@H](NC(=O)[C@H](N)c3ccccc3)C(=O)N2[C@H]1C(=O)O` [Ampiciliin, ampicillin] was tested, and the “resistance of the strain NPUST-1 against the antibiotic” value was “resistance”.
With `Cc1ccnc(NS(=O)(=O)c2ccc(N)cc2)n1` [sulfamerazine] the “resistance of the strain NPUST-1 against the antibiotic” value was “resistance”.

same assay, conditions: in words; antibiotic at maximum concentration for aquaculture

With `CC1(C)S[C@@H]2[C@H](NC(=O)[C@H](N)c3ccccc3)C(=O)N2[C@H]1C(=O)O` [Ampiciliin, ampicillin] the “inhibition effect against P. ehimensis NPUST-1” value was “no inhibition effect”.
For `COc1cc(NS(=O)(=O)c2ccc(N)cc2)nc(OC)n1` [Sulfadimethoxine, sulfadimethoxine], the “inhibition effect against P. ehimensis NPUST-1” value was “no inhibition effect”.
